The text below walks through data of patent publication US20260219274A1, “POLYOL SWEETNERS AND CARDIOVASCULAR AND THROMBOTIC EVENT RISK” (THE CLEVELAND CLINIC FOUNDATION, priority 2023, published 2026).

Data set [1] is described as follows: Erythritol intervention study (COSETTE): postprandial plasma erythritol levels. The format is in vivo, human. The following applies: for hours after ingestion of 30 g. The protocol:
In a fourth study, the first phase of the Erythritol Intervention Study (COSETTE, clinicaltrials.gov number: NCT04731363), prospectively recruited healthy volunteers ingested a standard-size artificially sweetened beverage (300 mL) containing 30 g of erythritol with instructions to consume the drink within 2 minutes, and blood samples were collected at scheduled post-prandial time points for crythritol measurement. For each participant in the erythritol intervention study (n=8), baseline blood samples were first obtained after overnight (≥8 hours) fasting. […] Therefore, participants were given 30 g erythritol dissolved in 300 mL water. Serial venous blood sampling was performed up to 7d after baseline. […]
Stable-isotope-dilution LC/MS/MS was used for quantification of erythritol, threitol, and 1,5-AHG in human and mouse plasma. […] Limit of detection (LOD) and limit of quantification (LOQ) were as follow: threitol:0.048 and 0.160 μM; erythritol: 0.026 and 0.089 μM; 1,5-AHG: […]; respectively. Three quality control samples were run with each batch of samples and inter-batch variations expressed as coefficient of variation (CV) were less than 7% for all analytes monitored. Data were collected and analyzed by LabSolution 5.91 software (Shimadzu).

Data set [2] relates to PRP from healthy volunteers. Put plainly: Xylitol dietary challenge: platelet aggregometry before and 30 min after ingestion. The format is in vivo, human. The protocol: The second part of xylitol ingestion studies focused on platelet phenotypic changes after oral xylitol challenge. In these parallel studies, platelet-rich plasma (PRP) was isolated immediately after the blood draw (from the same subjects that were used for xylitol pharmacokinetics studies) and aggregometry assays performed (as described below) on blood samples collected at baseline and 30 min (when postprandial peak levels were observed) after xylitol exposure.
A non-randomized study design was used wherein each subject served as their own control, comparing both xylitol levels and indices of platelet function within subjects at baseline versus 30 min following ingestion of the standardized drink of xylitol. […]
Platelet rich plasma (PRP) was isolated as previously described.^5 Whole blood was drawn from healthy donors and anticoagulated with sodium citrate (0.109 M). […] Next, platelets were counted with a hemocytometer and the platelet concentration adjusted to 2×10^8/mL using PPP. […] When used, pairs of vehicle vs. xylitol incubated PRP were always incubated and analyzed together (beginning, middle, end of platelet prep use) and after 120 minutes post isolation, PRPs were not used anymore.

Molecules are shown by their SMILES.

On to `OC[C@@H](O)[C@@H](O)CO` [erythritol], for which, in data set [1], the “elevation of plasma erythritol over baseline” value is 1000 fold. On to `OC[C@@H](O)[C@H](O)[C@@H](O)CO` [xylitol], for which the “aggregation responses to ADP or TRAP6 after ingestion” value in data set [2] (30 min after 30 g xylitol vs baseline) is listed as “substantial (multiple-fold) increase”. In data set [2] (submaximal ADP and TRAP6, after xylitol ingestion, every subject), the “platelet responsiveness of individual subjects” value was “significant increase”.
